Experiments:
[1] = Partition coefficient (logP); assay type: physicochemical; conditions: octanol/water
[2] = molecular target: Protein kinase C alpha type (Homo sapiens, UniProt P17252); test: Displacement of [20-3H]-PDBU ligand from recombinant protein kinase C (baculovirus)

Compound	logP [1]	Ki [2] [nM]
CC(C)CC(C/C=C1\CC(CO)(CN(O)C(=O)C(C)(C)C)OC1=O)CC(C)C (stereo not given)	3.58	4.81
CC(C)C(C/C=C1\CC(CO)(COC(=O)C(C)(C)C)OC1=O)C(C)C (stereo not given)	–	11.2
CC(C)CC(C/C=C1/CC(CO)(CNC(=O)C(C)(C)C)OC1=O)CC(C)C (stereo not given)	3.95	430
CC(C)C(C/C=C1\CC(CO)(COC(=O)CC(C(C)C)C(C)C)OC1=O)C(C)C (stereo not given)	5.89	–
CC(C)CC(C/C=C1\CC(CO)(COC(=O)C(C)(C)C)OC1=O)CC(C)C (stereo not given)	5.03	4.51
CC(C)CC(C/C=C1\CC(CO)(COC(=O)CC(C(C)C)C(C)C)OC1=O)CC(C)C (stereo not given)	6.88	4.46
CC(C)C(C/C=C1/CC(CO)(COC(=O)CC(C(C)C)C(C)C)OC1=O)C(C)C (stereo not given)	5.89	–
CC(C)CC(C/C=C1\CC(CO)(CNC(=O)C(C)(C)C)OC1=O)CC(C)C (stereo not given)	3.95	1260
CC(C)CC(C/C=C1/CC(CO)(COC(=O)C(C)(C)C)OC1=O)CC(C)C (stereo not given)	5.03	2.9

The remaining compounds from weak to strong by Ki [2], led by results:

logP [1]	Ki [2] [nM]	Compound
–	10400	CC(C)CC(C/C=C1\CC(CO)(COC(=O)C(C)(C)C)N(O)C1=O)CC(C)C (stereo not given)
5.01	4840	CC(C)CC(C/C=C1\CC(CO)(COC(=O)C(C)(C)C)NC1=O)CC(C)C (stereo not given)
5.01	4330	CC(C)CC(C/C=C1/CC(CO)(COC(=O)C(C)(C)C)NC1=O)CC(C)C (stereo not given)
–	8.32	CC(C)C(C/C=C1/CC(CO)(COC(=O)C(C)(C)C)OC1=O)C(C)C (stereo not given)
6.88	6.87	CC(C)CC(C/C=C1/CC(CO)(COC(=O)CC(C(C)C)C(C)C)OC1=O)CC(C)C (stereo not given)
3.58	5.42	CC(C)CC(C/C=C1/CC(CO)(CN(O)C(=O)C(C)(C)C)OC1=O)CC(C)C (stereo not given)
